Biological target: T1, human GLP-1R receptor (Homo sapiens, UniProt P43220)
T1 construct: expressed in transfected cells
Assay: GLP-1R low expression cell assay (cAMP TR-FRET, CHO-K1_hGLP-1Rlow_clone10 cells)
Format: cell-based
Settings: for EC50: cAMP TR-FRET, 30 min at 25° C.; for Emax: maximum activation relative to control GLP-1 peptide agonist
Summary of the method: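 Readout is cAMP TR-FRET after 30 min compound stimulation at 25 °C of a low-GLP-1R-expressing CHO-K1 clone (1,000 cells/well), with 10-point 3-fold serial dilutions. Percent activation versus a control GLP-1 peptide, from duplicates, was Hill-fitted to give EC50.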

T1 sequence (P43220 24-463): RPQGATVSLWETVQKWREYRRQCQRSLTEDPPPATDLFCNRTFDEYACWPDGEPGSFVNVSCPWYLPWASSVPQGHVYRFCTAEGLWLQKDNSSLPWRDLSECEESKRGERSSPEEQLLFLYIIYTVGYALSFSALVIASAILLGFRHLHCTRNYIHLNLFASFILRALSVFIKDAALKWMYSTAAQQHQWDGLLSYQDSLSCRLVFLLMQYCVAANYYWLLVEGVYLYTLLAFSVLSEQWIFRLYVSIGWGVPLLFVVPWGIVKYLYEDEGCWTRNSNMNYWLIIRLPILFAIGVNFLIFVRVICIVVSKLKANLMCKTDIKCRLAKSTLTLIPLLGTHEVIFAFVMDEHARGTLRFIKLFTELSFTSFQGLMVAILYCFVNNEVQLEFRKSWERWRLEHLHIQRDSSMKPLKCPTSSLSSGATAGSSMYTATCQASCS

Row | EC50 [nM] | Emax [%] | SMILES
1 | 10 to 100 | > 85 | Cn1c(CN2CCC(c3cccc(OCc4ccc(C(F)F)cc4F)n3)CC2)nc2c(OC(F)F)cc(C(=O)O)cc21 [Compound 201, 4-(Difluoromethoxy)-2-((4-(6-((4-(difluoromethyl)-2-fluorobenzyl)oxy)pyridin-2-yl)piperidin-1-yl)methyl)-1-methyl-1H-benzo[d]imidazole-6-carboxylic acid]
2 | 10 to 100 | > 85 | Cn1c(CN2CCC(c3cccc(OCc4ccc(Cl)cc4F)n3)CC2)nc2c(OCC#N)cc(C(=O)O)cc21 [Compound 202]
3 | 10 to 100 | > 85 | Cn1c(CN2CCC(c3cccc(OCc4ccc(C(F)(F)F)cc4)n3)CC2)nc2c(OC(F)F)cc(C(=O)O)cc21 [Compound 203, 4-(difluoromethoxy)-1-methyl-2-((4-(6-((4-(trifluoromethyl)benzyl)oxy)pyridin-2-yl)piperidin-1-yl)methyl)-1H-benzo[d]imidazole-6-carboxylic acid]
4 | > 1000 | > 85 | O=C(O)c1ccc2nc(CN3CCC(c4cccc(OCc5ccc(Cl)cc5F)n4)CC3)[nH]c2c1O [Compound 204, 2-((4-(6-((4-Chloro-2-fluorobenzyl)oxy)pyridin-2-yl)piperidin-1-yl)methyl)-7-hydroxy-1H-benzo[d]imidazole-6-carboxylic acid]
5 | > 1000 | 50 to 85 | Cn1c(CN2CCC(c3ccc4ccn(Cc5ccc(Cl)cc5F)c4n3)CC2)nc2c(OC(F)F)cc(C(=O)O)cc21 [Compound 205, 2-((4-(1-(4-Chloro-2-fluorobenzyl)-1H-pyrrolo[2,3-b]pyridin-6-yl)piperidin-1-yl)methyl)-4-(difluoromethoxy)-1-methyl-1H-benzo[d]imidazole-6-carboxylic acid]
6 | > 1000 | < 25 | O=C(O)c1cc(OC(F)F)c2c(c1)nc(CN1CCC(c3cccc(OCc4ccc(Cl)cc4F)n3)CC1)n2CF [Compound 206, 2-((4-(6-((4-Chloro-2-fluorobenzyl)oxy)pyridin-2-yl)piperidin-1-yl)methyl)-7-(difluoromethoxy)-1-(fluoromethyl)-1H-benzo[d]imidazole-5-carboxylic acid]
7 | 10 to 100 | > 85 | O=C(O)c1cc(OC(F)F)c2nc(CN3CCC(c4cccc(OCc5ccc(Cl)cc5F)n4)CC3)n(CF)c2c1 [Compound 208, 2-((4-(6-((4-Chloro-2-fluorobenzyl)oxy)pyridin-2-yl)piperidin-1-yl)methyl)-4-(difluoromethoxy)-1-(fluoromethyl)-1H-benzo[d]imidazole-6-carboxylic acid]
8 | 10 to 100 | > 85 | COc1cc(C(=O)O)cc2c1nc(CN1CCC(c3cccc(OCc4ccc(Cl)cc4F)n3)CC1)n2CF [Compound 209, 2-((4-(6-((4-Chloro-2-fluorobenzyl)oxy)pyridin-2-yl)piperidin-1-yl)methyl)-1-(fluoromethyl)-4-methoxy-1H-benzo[d]imidazole-6-carboxylic acid]
9 | > 1000 | 25 to 50 | O=C(O)c1ccc2nc(CN3CCC(c4cccc(OCc5ccc(Cl)cc5F)n4)CC3)[nH]c2c1OC(F)F [Compound 210, 2-((4-(6-((4-Chloro-2-fluorobenzyl)oxy)pyridin-2-yl)piperidin-1-yl)methyl)-7-(difluoromethoxy)-1H-benzo[d]imidazole-6-carboxylic acid]
10 | 10 to 100 | > 85 | Cn1c(CN2CCC(c3cccc(OCc4ccc(Cl)cc4F)n3)CC2)nc2c(OC[C@@H]3CCO3)cc(C(=O)O)cc21 [Compound 211, (S)-2-((4-(6-((4-Chloro-2-fluorobenzyl)oxy)pyridin-2-yl)piperidin-1-yl)methyl)-1-methyl-4-(oxetan-2-ylmethoxy)-1H-benzo[d]imidazole-6-carboxylic acid]
11 | 100 to 1000 | > 85 | COc1c(Cl)ccc(COc2cccc(C3CCN(Cc4nc5c(OC(F)F)cc(C(=O)O)cc5n4C)CC3)n2)c1F [Compound 212, 2-((4-(6-((4-Chloro-2-fluoro-3-methoxybenzyl)oxy)pyridin-2-yl)piperidin-1-yl)methyl)-4-(difluoromethoxy)-1-methyl-1H-benzo[d]imidazole-6-carboxylic acid]
12 | 100 to 1000 | > 85 | Cn1c(CN2CCC(c3cccc(OCc4ccc(C#N)cn4)n3)CC2)nc2c(OC(F)F)cc(C(=O)O)cc21 [Compound 213, 2-((4-(6-((5-Cyanopyridin-2-yl)methoxy)pyridin-2-yl)piperidin-1-yl)methyl)-4-(difluoromethoxy)-1-methyl-1H-benzo[d]imidazole-6-carboxylic acid]
13 | 100 to 1000 | 50 to 85 | Cn1c(CN2CCC(c3cccc(OCc4ccc(Cl)cc4F)n3)CC2)nc2c(OCC3(C#N)CC3)cc(C(=O)O)cc21 [Compound 214, 2-((4-(6-((4-Chloro-2-fluorobenzyl)oxy)pyridin-2-yl)piperidin-1-yl)methyl)-4-((1-cyanocyclopropyl)methoxy)-1-methyl-1H-benzo[d]imidazole-6-carboxylic acid]
14 | < 10 | > 85 | Cn1c(CN2CCC(c3cccc(OCc4ccc(Cl)cc4F)n3)CC2)nc2c(OC3CC3)cc(C(=O)O)cc21 [Compound 215, 2-((4-(6-((4-Chloro-2-fluorobenzyl)oxy)pyridin-2-yl)piperidin-1-yl)methyl)-4-cyclopropoxy-1-methyl-1H-benzo[d]imidazole-6-carboxylic acid]
15 | > 1000 | > 85 | Cn1c(CN2CCC(n3ccc(OCc4ccc(Cl)cc4F)n3)CC2)nc2c(OC(F)F)cc(C(=O)O)cc21 [Compound 217, 2-((4-(3-((4-Chloro-2-fluorobenzyl)oxy)-1H-pyrazol-1-yl)piperidin-1-yl)methyl)-4-(difluoromethoxy)-1-methyl-1H-benzo[d]imidazole-6-carboxylic acid]
16 | 10 to 100 | > 85 | Cn1c(CN2CCC(c3cccc(OCc4ccc(Cl)cc4F)n3)CC2)nc2c(Cl)cc(C(=O)O)cc21 [Compound 218, 4-chloro-2-((4-(6-((4-chloro-2-fluorobenzyl)oxy)pyridin-2-yl)piperidin-1-yl)methyl)-1-methyl-1H-benzo[d]imidazole-6-carboxylic acid]
17 | > 1000 | 25 to 50 | Cn1c(CN2CCC(c3cccc(CCc4ccc(Cl)cc4)n3)CC2)nc2c(OC(F)F)cc(C(=O)O)cc21 [Compound 219, 2-((4-(6-(4-chlorophenethyl)pyridin-2-yl)piperidin-1-yl)methyl)-4-(difluoromethoxy)-1-methyl-1H-benzo[d]imidazole-6-carboxylic acid]
18 | > 1000 | > 85 | Cn1c(CN2CCC(c3cccc(OCc4ccc(Cl)cc4F)n3)CC2)nc2c(OC(F)F)c(C(=O)O)ccc21 [Compound 220, 2-((4-(6-((4-Chloro-2-fluorobenzyl)oxy)pyridin-2-yl)piperidin-1-yl)methyl)-4-(difluoromethoxy)-1-methyl-1H-benzo[d]imidazole-5-carboxylic acid]
19 | 10 to 100 | > 85 | Cn1c(CN2CCC(c3cccc(OCc4ccc(OC(F)F)cc4F)n3)CC2)nc2c(OC(F)F)cc(C(=O)O)cc21 [Compound 221, 4-(Difluoromethoxy)-2-((4-(6-((4-(difluoromethoxy)-2-fluorobenzyl)oxy)pyridin-2-yl)piperidin-1-yl)methyl)-1-methyl-1H-benzo[d]imidazole-6-carboxylic acid]

— patent US20240368120A1 (Terns Pharmaceuticals, Inc., priority 2023, published 2024)
